Assays:
[1] = system: CKD Mouse Model; test: Renal fibrosis in the CKD mouse model (sirius red staining); type: in vivo, mice; conditions: two months administration; FIG. 14 A-B
Description: Chronic kidney disease (CKD) was induced by subtotal nephrectomy (Nx) in eight-weeks-old FVB male mice (25-26 g). All surgeries were performed under ketamine/xylazine anaesthesia. Briefly, the left kidney was exposed, and the upper and lower poles were tied with a poly-glycolic acid suture line. The peritoneum and skin were then sutured, and the animals were returned to their individual cages. After one week of recovery, the second kidney was removed. Removal of the second kidney represents TO. Sham mice were subjected to the same surgical procedures but neither renal poles nor the right kidney were removed. Mice were monitored for any sign of distress, and those observed to be experiencing severe, unrelievable pain were euthanized. Renal failure was assessed by the measure of plasma creatinine and urea with an automatic analyser (Konelab 20i; Thermo Fisher Scientific, Vernon Hills, Ill.) at weeks 4 and 10 post-Nx.

[2] = system: aldosterone-induced profibrotic marker synthesis; test: Aldosterone-induced profibrotic marker synthesis in human cardiac fibroblasts; type: cell-based; conditions: FIGS. 1 and 2 panel D
Description: Cell Culture Human cardiac fibroblasts (primary culture) were obtained from Promocell and maintained in medium (Fibroblast Media 3). Cells were cultured according to the manufacturer's instructions and used between passages 5 and 7. Cells were stimulated with aldosterone (10^-8 M, Sigma) or recombinant hNGAL (500 ng/mL, R&D Systems) for 24 h for protein analysis. Mouse kidney fibroblasts (MKF), were isolated from Wild Type (WT) mice. Briefly, mice 7 to 8 weeks were sacrificed by cervical dislocation and kidneys were cleaned and rinsed in cold DPBS (Dulbecco's Phosphate-Buffered Saline). […]
Total protein aliquots of 20 μg were prepared from cardiac homogenates and electrophoresed on SDS polyacrylamide gels and transferred to Hybond-c Extra nitrocellulose membranes (Amersham Biosciences). […] After densitometric analyses, optical density values were expressed as arbitrary units. Results are expressed as an n-fold increase over the values of the control group in densitometric arbitrary units.
NGAL, IL6 and collagen type I concentrations were measured in cardiac tissue and cell supernatants, respectively, by ELISA according to the manufacturer's instructions (R&D Systems).
The inhibitory activity of the compounds was evaluated on the NGAL-induced IL6 secretion (NGAL 10 ng/ml) in human cardiac fibroblasts. […]

[3] = system: Myocardial Infarction Model; test: Cardiac fibrosis and collagen immunostaining in the myocardial infarction model; type: in vivo, mice; conditions: MI model, 100 mg/kg/day in food admix, three months
Source text: After assessment of cardiac hemodynamics, the heart was removed, and the atria and the ventricles were separated and weighed individually. A section of the left ventricle was immersed in Bouin fixative solution. After fixation, the sections were dehydrated and embedded in paraffin. From these sections, […] histologic slices were obtained and were stained with Sirius Red. For the measurement of cardiac collagen density, slides were examined and photographed under a light microscope (Zeiss) at 40× magnification. Collagen content was calculated as percentage of collagen area to total area of the image. Perivascular collagen was excluded from the analysis.
Frozen mid-LV sections are thawed at room temperature (30 min), immersed in acetone, rinsed in PBS (1×) and immersed in BSA (10 min each). Slides are then incubated with primary rabbit anti-human collagen-I Ab (Abcam ab 34710) (dilution 1/1000) and primary goat anti-human collagen-III Ab (Rnd NBP1 26547) (dilution 1/500) for 1 hour. Thereafter, slides are rinsed three times in PBS (1×) before being incubated with secondary antibodies donkey […] coupled with FITC (Jackson immunosearch 715-095-151) and donkey anti-goat coupled with Cy3 (Interchim A50-201D3) (dilution 1/400). After three rinses in PBS (1×), slides are mounted with a cover slip on a vecatshield+DAPI medium (Vector Laboratories). A minimum of 8/slide microscopic photographs (×20) were taken from Axiocam-Z1 (Zeiss) fluorescence microscope and analyzed with Image Pro-plus Software. Results are shown as mean±esm.

## CC(=O)c1cccc(S(=O)(=O)NCc2ccccc2-n2cccn2)c1 [GPZ614741]
[1]
  interstitial fibrosis associated to CKD (sirius red staining): strong antifibrotic effect
[2]
  aldosterone-induced profibrotic marker (Col1, CT-1, or IL6) synthesis: inhibited
[3]; FIG. 9 panel A
  LV interstitial collagen density: significant decrease
[3]; FIG. 9 panel B
  Col I immunostaining: decrease
[3]; FIG. 9 panel C
  Col III immunostaining: decrease
